Several values for one entry are separate records, joined by “and”; a condition that tells them apart may be missing. Equal entries are not always repeated. Entries after “also recorded” stand apart in the source; their conditions may differ. Where two headings read alike, the source gives them in different places.
Key:
[1] = molecular target: T1, SARS-CoV-2 NSP3 macrodomain (Mac1) (Severe acute respiratory syndrome coronavirus 2, UniProt P0DTD1); type: binding; conditions: for Total number of conformations: ligand conformations modeled in the crystal structure; for 2*(1-BDC) (%): occupancy estimate from PanDDA; for 1-BDC (PanDDA run, DMSO background map): event 1; for Phe132 loop open state: open state of Phe132 loop seen in the ligand-bound structure
[2] = molecular target: T1, SARS-CoV-2 NSP3 macrodomain (Mac1); assay: biochemical; type: binding
[3] = PanDDA background density correction factor
[4] = crystal soak 10 mM, P43 crystal form
[5] = ligand-bound crystal structure obtained (TRUE)
[6] = refined crystallographic occupancy
[7] = site occupied in X-ray crystal structure
[8] = HTRF binding curve, SARS-CoV-2 Mac1
[9] = SARS CoV-2 macrodomain HTRF assay, dose-response
[10] = TRUE = crystal structure with ligand obtained
[11] = site of ligand in X-ray crystal structure
[12] = PanDDA background density correction, 1-BDC
[13] = crystal soak, 10 mM soak concentration, P43 crystal form
[14] = crystal soak concentration 10 mM
[15] = crystal soak concentration 10 mM, P43 crystals

| SMILES | X-ray crystal structure [1, 5] | 2*(1-BDC) (%) [1] [%] | Binding site [1, 7] | Hill slope [2, 8] | Hill slope [2, 9] | 1-BDC [1, 12] | Hit (PanDDA run, DMSO background map) ([1]; crystal soak 10 mM) | 1-BDC (PanDDA run, DMSO background map) ([1]; crystal soak 10 mM) | Hit (PanDDA run, overall) [1, 13] | Refined ligand occupancy (%) ([1]; crystallographic refinement) | Hit (PanDDA run, DMSO background map) [1, 14] | Modeled (PanDDA run, DMSO background map) [1, 14] | 1-BDC (PanDDA run, DMSO background map) [1, 14] | Hit (PanDDA run, overall) [1, 15] | Modeled (PanDDA run, overall) [1, 15] | Modeling comment (PanDDA run, overall) [1, 15] | other results |
| --- | --- | --- | --- | --- | --- | --- | --- | --- | --- | --- | --- | --- | --- | --- | --- | --- | --- |
| O=C(O)C(F)(F)F.OC1([C@H]2CCCN2c2ncnc3[nH]ccc23)Cc2ccccc2C1 [AVI-3731] | TRUE | 40 | Adenosine | 1.1 | 1.1 |  |  |  |  |  |  |  |  |  |  |  | Occupancy difference (refined_occupancy - 2*(1-BDC)) [1]: 0; 1-BDC [1, 3]: 0.2; PanDDA run, overall: Hit [1, 4]: TRUE; PanDDA run, DMSO background map: 1-BDC ([1]; crystal soak 10 mM): 0.2; PanDDA run, DMSO background map: Hit ([1]; crystal soak 10 mM): TRUE; Total number of conformations [1]: 1; Refined ligand occupancy (%) [1, 6]: 40%; inhibition at 200 µM ([2]; SARS CoV-2 macrodomain HTRF assay, single dose concentration 200 μM, read-out: Average % competition): 100%; inhibition at 200 µM ([2]; compound at 200 μM, mean of three to four technical replicates, read-out: % competition at 200 μM (preliminary HTRF screen)): 100% |
| OCCC(CO)Nc1ncnc2[nH]ccc12 (stereo not shown) [AVI-3734] |  | 50 |  | 1.2 | 1.2 |  |  |  |  |  |  |  |  |  |  |  | Occupancy difference (refined_occupancy - 2*(1-BDC)) [1]: 0; 1-BDC [1, 3]: 0.25; X-ray crystal structure [1, 10]: TRUE; PanDDA run, overall: Hit [1, 4]: TRUE; PanDDA run, DMSO background map: 1-BDC ([1]; crystal soak 10 mM): 0.25; PanDDA run, DMSO background map: Hit ([1]; crystal soak 10 mM): TRUE; Total number of conformations [1]: 1; Refined ligand occupancy (%) [1, 6]: 50%; Binding site [1, 11]: Adenosine |
| CC(O)C1CCCN1c1ncnc2[nH]ccc12 (stereo not shown) [AVI-4062] | TRUE | 52 | Adenosine | 1.1 | 1.1 | 0.26 | TRUE | 0.26 and 0.29 | TRUE | 70 |  |  |  |  |  |  |  |
| C[C@H]1CC[C@H](CO)N(c2ncnc3[nH]ccc23)C1 [AVI-4063] | TRUE | 32 | Adenosine | 1.1 | 1.1 | 0.16 | TRUE | 0.21 and 0.16 | TRUE | 50 |  |  |  |  |  |  |  |
| C[C@@H]1CCN(c2ncnc3[nH]ccc23)[C@H](CO)C1 [AVI-4064] | TRUE | 38 | Adenosine | 1.2 | 1.2 | 0.19 | TRUE | 0.19 | TRUE | 38 |  |  |  |  |  |  |  |
| O=C(O)C(F)(F)F.OC[C@H](Cc1ccc(O)cc1)Nc1ncnc2[nH]ccc12 [AVI-4066] |  | 40 |  | 1.1 | 1.1 | 0.2 | TRUE | 0.2 and 0.37 and 0.38 | TRUE | 50 |  |  |  |  |  |  | X-ray crystal structure [1, 10]: TRUE; Binding site [1, 11]: Adenosine |
| CC(C)(O)C1N(c2ncnc3[nH]ccc23)CCC1(C)C (stereo not shown) [AVI-4126] | TRUE | 32 | Adenosine | 1.3 | 1.3 | 0.16 |  |  |  | 40 | TRUE | TRUE | 0.17 and 0.16 | TRUE | TRUE | Duplicate, not modeled | Phe132 loop open state [1]: TRUE |
| CC(C)(O)C1C2CCCCC2CN1c1ncnc2[nH]ccc12 (stereo not shown) [AVI-4127] | TRUE | 50 | Adenosine | 1.3 | 1.3 | 0.25 |  |  |  | 60 | TRUE | TRUE | 0.23 and 0.25 | TRUE | TRUE | Duplicate, not modeled | Phe132 loop open state [1]: TRUE |
| CC(C)(O)C1C2CCC2CN1c1ncnc2[nH]ccc12 (stereo not shown) [AVI-4128] | TRUE | 40 | Adenosine | 1.2 | 1.2 | 0.2 |  |  |  | 60 | TRUE | TRUE | 0.27 and 0.2 | TRUE | TRUE | Duplicate, not modeled; also recorded: Weak density for open conformation |  |
| Cc1c[nH]c2ncnc(NCC3(O)CCOCC3)c12 [AVI-4194, 4-(((5-methyl-7H-pyrrolo[2,3-d]pyrimidin-4-yl)amino)methyl)tetrahydro-2H-pyran-4-ol] | TRUE | 18 | Adenosine | 1.3 | 1.3 | 0.09 |  |  |  | 18 | TRUE | TRUE | 0.13 and 0.09 | TRUE | TRUE | Duplicate, not modeled |  |
| Cc1c[nH]c2ncnc(NCC3(O)CCSCC3)c12 [AVI-4195, 4-(((5-methyl-7H-pyrrolo[2,3-d]pyrimidin-4-yl)amino)methyl)tetrahydro-2H-thiopyran-4-ol] | TRUE | 28 | Adenosine | 1.2 | 1.2 | 0.14 |  |  |  | 28 | TRUE | TRUE | 0.14 | TRUE | TRUE | Duplicate, not modeled |  |
| CC1CCCC(O)(CNc2ncnc3[nH]ccc23)C1 (stereo not shown) [AVI-4307] | TRUE | 34 | Adenosine | 1.0 | 1.0 | 0.17 | TRUE | 0.17 | TRUE | 34 |  |  |  |  |  |  |  |
| OC1(CNc2ncnc3[nH]ccc23)CCC(F)(F)CC1 [AVI-4308] | TRUE | 30 | Adenosine | 1.2 | 1.2 | 0.15 | TRUE | 0.15 | TRUE | 30 |  |  |  |  |  |  |  |
| OC1(CNc2ncnc3[nH]ccc23)CCCC(C(F)(F)F)C1 (stereo not shown) [AVI-4309] | TRUE | 40 | Adenosine | 1.4 | 1.4 | 0.2 | TRUE | 0.21 | TRUE | 40 |  |  |  |  |  |  |  |

— paper PMC12118597 (Science Advances, 2025)
